The values that follow come from patent US11260029B2, “Fish feed compositions containing a neonicotinoid for preventing and treating parasite infections” (priority 2014, dated 2022).

Data set [1] deals with Lepeophtheirus pre-adult lice. As to the kind of experiment: Feed trials: removal of pre-adult sea lice from fish fed medicated feed. Conditions: for Lice removed by 11 days after last day of treatment / Lice removed by 3 days after last day of treatment: Feed Trial Number One; for Lice removed by 2 days after last day of treatment / Lice removed by 9 days after last day of treatment: Feed Trial Number Two. Format: in vivo. The protocol:
Empyreal™ 75, a processed corn protein concentrate, was mixed with imidacloprid to form a pre-mix. This pre-mix was then added to salmon feeds using fish oil to help coat it onto the pellets to prepare the medicated feed.
Medicated feed for fish was prepared based on the amount of feed that the fish were consuming each day to give a total dosage to different tanks of fish of 10, 20, 40, 60 and 100 milligrams of active ingredient (imidacloprid) over a 5 day period. Experiments were run using total dosages given over 5 days of feeding. A 5 day period was used to provide efficacy, convenience and safety.
Individual fish weights ranged from 62 to 188 grams.
Sea lice have a number of developmental stages on salmon of which two are pre-adults that do a lot of damage to the fish (e.g. Lepeophtheirus pre-adult I, Lepeophtheirus pre-adult II, Caligus pre-adult I, Caligus pre-adult II). Compositions were tested on the two pre-adult stages of Lepeophtheirus. The disclosed compositions are also useful for killing sea lice in the adult male and adult female and adult gravid female stage and the juvenile chalimus stages.

Data set [2] can be described thus: Tolerance of fish at five times the 20 mg/kg total dosage (mortalities, histology). Format: in vivo, salmon.
The subject of the next data set is salmon lice. To be noted: 100 ppm bath; in one hour; U.S. Pat. No. 5,504,081; cited from earlier work.
The test system of the next data set is L. salmonis. Conditions: in-feed 1, 5 or 10 mg/kg/day for 7 days; WO 2014/064184; cited from earlier work.
[3] abbreviates: 8 mg/kg fish per day, total 40 mg/kg.
Setting [4] is: 12 mg/kg fish per day, total 60 mg/kg.
[5] abbreviates: 2 mg/kg fish per day, total 10 mg/kg.

Several values for one entry are separate records, joined by “and”; a condition that tells them apart may be missing. Identical values can stand only once.

`O=[N+]([O-])NC1=NCCN1Cc1ccc(Cl)nc1` [Imidacloprid, (2E)-1-((6-chloropyridin-3-yl)methyl)-N-nitroimidazolidin-2-imine] came in with a Lepeophtheirus lice removed in data set [1] (4 mg per kilogram per day for five days, three days into the five-day treatment) of 13.6%. For the same compound, the “Lice removed by 11 days after last day of treatment” value in data set [1] (4 mg/kg fish per day, total 20 mg/kg, 16 days after treatment had started) is listed as 100%; in data set [1] (4 mg/kg fish per day, total 20 mg/kg, 16 days after treatment had started, listed as imidacloprid) it was 100%; in data set [1] (setting [3]) it was 97.84%^; in data set [1] (setting [4]), 100%. In addition, the “Lice removed by 3 days after last day of treatment” value in data set [1] (4 mg/kg fish per day, total 20 mg/kg, eight days after the treatment had started) is 96.70% and 96.75%; in data set [1] (4 mg/kg fish per day, total 20 mg/kg, eight days after the treatment had started, listed as imidacloprid), 96.75%; in data set [1] (setting [3]), 97.84%; in data set [1] (setting [4]), 100%. The “Lice removed by 2 days after last day of treatment” value worked out at 64.28% in data set [1] (setting [5]) and 88.37% in data set [1] (20 mg/kg fish per day, total 100 mg/kg). For the same compound, the “Lice removed by 9 days after last day of treatment” value is given as 77.67% in data set [1] (setting [5]) and 77.7% in data set [1] (2 mg/kg fish per day, total 10 mg/kg, listed as imidacloprid). For the same compound, in data set [1] (higher dosages trialed, 40, 60 and 100 milligrams total), the removal of lice entry is reported as “very effective removal of lice”. For the same compound, the “abnormalities on histological examination of organs” value in data set [2] (100 mg/kg total dosage) is on record as “no abnormalities detectable”. For the same compound, the mortalities result in data set [2] (100 mg/kg total dosage (five times the 20 mg/kg total dosage)) was “no mortalities”. Also, the lice killed in the data set on salmon lice is on record as 100%.
For the compound `CN/C(=N\[N+](=O)[O-])NCc1cnc(Cl)s1` [clothianidin], the sea lice elimination entry with L. salmonis is on record as “full sea lice elimination”.
